Measured values reported in the supplement of paper PMC10307832.

How the values were obtained:
Test in all cases: relative viability (nuclei count vs DMSO), 5 days (fraction); higher = more cells survive
NCI-H2347 = tested on: NCI-H2347
Procedure, shortened: (§1)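 Relative viability equals treated-well nuclei counts divided by vehicle-well nuclei counts. Counts came from 4× images of lung cancer cell lines grown in 1536-well plates for 5 days after pin-tool dosing on the day after seeding. Dosing used one drug alone or a fixed anchor-drug dose plus five library-drug doses (not always all listed) in √10 steps, and values are medians of duplicate plates.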

HCC-44 = tested on: HCC-44
Procedure, shortened: as §1

201T = tested on: 201T
Procedure, shortened: as §1

NCI-H1650 = tested on: NCI-H1650
Procedure, shortened: as §1

LK-2 = tested on: LK-2
Procedure, shortened: as §1

NCI-H460 = tested on: NCI-H460
Procedure, shortened: as §1

NCI-H838 = tested on: NCI-H838
Procedure, shortened: as §1

PC-14 = tested on: PC-14
Procedure, shortened: as §1

SW 1573 = tested on: SW 1573
Procedure, shortened: as §1

NCI-H1793 = tested on: NCI-H1793
Procedure, shortened: as §1

H3255 = tested on: H3255
Procedure, shortened: as §1

NCI-H1944 = tested on: NCI-H1944
Procedure, shortened: as §1

PC-3 [JPC-3] = tested on: PC-3 [JPC-3]
Procedure, shortened: as §1

A-427 = tested on: A-427
Procedure, shortened: as §1

LU99A = tested on: LU99A
Procedure, shortened: as §1

COR-L23 = tested on: COR-L23
Procedure, shortened: as §1

LCLC-97TM1 = tested on: LCLC-97TM1
Procedure, shortened: as §1

NCI-H727 = tested on: NCI-H727
Procedure, shortened: as §1

NCI-H23 = tested on: NCI-H23
Procedure, shortened: as §1

## O=C(O)c1ccc(-c2c[nH]c3ncc(-c4ccccc4)cc23)cc1C1CCCC1 + CC1(C)CCC(c2ccc(Cl)cc2)=C(CN2CCN(c3ccc(C(=O)NS(=O)(=O)c4ccc(N[C@H](CCN5CCOCC5)CSc5ccccc5)c(S(=O)(=O)C(F)(F)F)c4)cc3)CC2)C1 [Navitoclax] (partner 0.5 µM)
NCI-H2347; first compound 0.04 µM
  relative viability: 0.778
NCI-H2347; first compound 0.1265 µM
  relative viability: 0.821
NCI-H2347; first compound 0.4 µM
  relative viability: 0.761
NCI-H2347; first compound 1.265 µM
  relative viability: 0.612
HCC-44; first compound 0.04 µM
  relative viability: 1.06
HCC-44; first compound 0.1265 µM
  relative viability: 1.01
HCC-44; first compound 0.4 µM
  relative viability: 0.944
HCC-44; first compound 1.265 µM
  relative viability: 0.914
201T; first compound 0.04 µM
  relative viability: 1.23
201T; first compound 0.1265 µM
  relative viability: 1.26
201T; first compound 0.4 µM
  relative viability: 1.22
201T; first compound 1.265 µM
  relative viability: 1.13
NCI-H1650; first compound 0.04 µM
  relative viability: 1.17
NCI-H1650; first compound 0.1265 µM
  relative viability: 1.14
NCI-H1650; first compound 0.4 µM
  relative viability: 0.774
NCI-H1650; first compound 1.265 µM
  relative viability: 0.914
LK-2; first compound 0.04 µM
  relative viability: 0.9
LK-2; first compound 0.1265 µM
  relative viability: 0.876
LK-2; first compound 0.4 µM
  relative viability: 0.795
LK-2; first compound 1.265 µM
  relative viability: 0.687
NCI-H460; first compound 0.04 µM
  relative viability: 1.08
NCI-H460; first compound 0.1265 µM
  relative viability: 1.18
NCI-H460; first compound 0.4 µM
  relative viability: 1.14
NCI-H460; first compound 1.265 µM
  relative viability: 0.962
NCI-H838; first compound 0.04 µM
  relative viability: 1.15
NCI-H838; first compound 0.1265 µM
  relative viability: 1.27
NCI-H838; first compound 0.4 µM
  relative viability: 1.22
NCI-H838; first compound 1.265 µM
  relative viability: 1.07
PC-14; first compound 0.04 µM
  relative viability: 1.01
PC-14; first compound 0.1265 µM
  relative viability: 1.1
PC-14; first compound 0.4 µM
  relative viability: 1.03
PC-14; first compound 1.265 µM
  relative viability: 0.814
SW 1573; first compound 0.04 µM
  relative viability: 1.02
SW 1573; first compound 0.1265 µM
  relative viability: 1.22
SW 1573; first compound 0.4 µM
  relative viability: 1.05
SW 1573; first compound 1.265 µM
  relative viability: 0.619
NCI-H1793; first compound 0.04 µM
  relative viability: 0.538
NCI-H1793; first compound 0.1265 µM
  relative viability: 0.383
NCI-H1793; first compound 0.4 µM
  relative viability: 0.494
NCI-H1793; first compound 1.265 µM
  relative viability: 0.286
H3255; first compound 0.04 µM
  relative viability: 0.572
H3255; first compound 0.1265 µM
  relative viability: 0.642
H3255; first compound 0.4 µM
  relative viability: 0.684
H3255; first compound 1.265 µM
  relative viability: 0.463
NCI-H1944; first compound 0.04 µM
  relative viability: 1.01
NCI-H1944; first compound 0.1265 µM
  relative viability: 1.03
NCI-H1944; first compound 0.4 µM
  relative viability: 1.07
NCI-H1944; first compound 1.265 µM
  relative viability: 0.932
PC-3 [JPC-3]; first compound 0.04 µM
  relative viability: 0.817
PC-3 [JPC-3]; first compound 0.1265 µM
  relative viability: 0.886
PC-3 [JPC-3]; first compound 0.4 µM
  relative viability: 0.7
PC-3 [JPC-3]; first compound 1.265 µM
  relative viability: 0.564
A-427; first compound 0.04 µM
  relative viability: 1.02
A-427; first compound 0.1265 µM
  relative viability: 0.936
A-427; first compound 0.4 µM
  relative viability: 0.868
A-427; first compound 1.265 µM
  relative viability: 0.708
LU99A; first compound 0.04 µM
  relative viability: 0.818
LU99A; first compound 0.1265 µM
  relative viability: 0.987
LU99A; first compound 0.4 µM
  relative viability: 0.735
LU99A; first compound 1.265 µM
  relative viability: 0.721
COR-L23; first compound 0.04 µM
  relative viability: 1.01
COR-L23; first compound 0.1265 µM
  relative viability: 1.04
COR-L23; first compound 0.4 µM
  relative viability: 1.09
COR-L23; first compound 1.265 µM
  relative viability: 0.64
LCLC-97TM1; first compound 0.04 µM
  relative viability: 0.463
LCLC-97TM1; first compound 0.1265 µM
  relative viability: 0.303
LCLC-97TM1; first compound 0.4 µM
  relative viability: 0.503
LCLC-97TM1; first compound 1.265 µM
  relative viability: 0.396
NCI-H727; first compound 0.04 µM
  relative viability: 0.414
NCI-H727; first compound 0.1265 µM
  relative viability: 0.422
NCI-H727; first compound 0.4 µM
  relative viability: 0.476
NCI-H727; first compound 1.265 µM
  relative viability: 0.515
NCI-H23; first compound 0.04 µM
  relative viability: 0.804
NCI-H23; first compound 0.1265 µM
  relative viability: 0.944
NCI-H23; first compound 0.4 µM
  relative viability: 0.757
NCI-H23; first compound 1.265 µM
  relative viability: 0.724
